In BindingDB's records for doi:10.1021/jm500853v (University of Hawaii At Hilo, 2014):

The molecules below were run against DNA gyrase A/A/B/B tetramer (Escherichia coli (strain K12), UniProt P0AES4+P0AES6) (assay: Inhibition of Escherichia coli DNA gyrase assessed as supercoiled plasmid DNA formation after 30 mins by electrophoretic analysis).

IC50 [µM] | SMILES
500 | C=CCOc1ccccc1/C=C/C(=O)c1ccc(O)cc1O
250 | CC1(C)C2CC=C(/C=C/C(=O)c3ccc(O)cc3O)C1C2 (stereo not drawn)
500 | CC[C@H](C)C(=O)c1c(O)cc(O)cc1OC/C=C(\C)CCC=C(C)C [Olympicin A]
